In ChEMBL document CHEMBL1149524 (Bioorg Med Chem Lett, 2006):
In brackets after ≈: the same amount, converted by molar mass.

How the values were obtained:
[1] = target: T1, Cathepsin K (Homo sapiens, UniProt P43235); assay: Inhibition of cathepsin K; format: single protein
T1 sequence (P43235 whole entry): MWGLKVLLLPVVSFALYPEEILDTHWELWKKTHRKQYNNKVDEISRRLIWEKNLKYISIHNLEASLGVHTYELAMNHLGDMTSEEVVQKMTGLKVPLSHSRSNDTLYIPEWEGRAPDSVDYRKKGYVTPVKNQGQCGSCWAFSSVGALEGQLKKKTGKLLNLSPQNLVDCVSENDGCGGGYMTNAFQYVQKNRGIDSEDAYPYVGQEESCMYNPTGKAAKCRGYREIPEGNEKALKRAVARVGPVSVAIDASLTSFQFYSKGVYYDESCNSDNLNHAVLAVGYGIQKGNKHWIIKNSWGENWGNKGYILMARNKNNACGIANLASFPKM

[2] = Solubility at pH 6.8; format: physicochemical; details: buffer
[3] = target: Procathepsin L (Homo sapiens, UniProt P07711)
Sequence of Procathepsin L (P07711 whole entry): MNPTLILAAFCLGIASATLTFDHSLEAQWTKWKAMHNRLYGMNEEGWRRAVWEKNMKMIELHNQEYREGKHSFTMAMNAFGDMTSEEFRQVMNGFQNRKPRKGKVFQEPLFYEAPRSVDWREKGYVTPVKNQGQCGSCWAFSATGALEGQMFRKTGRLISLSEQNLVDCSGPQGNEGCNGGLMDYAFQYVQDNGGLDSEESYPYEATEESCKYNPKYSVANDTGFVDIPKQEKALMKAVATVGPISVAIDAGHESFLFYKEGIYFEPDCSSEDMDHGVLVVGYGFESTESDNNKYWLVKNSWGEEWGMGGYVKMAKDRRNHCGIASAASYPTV
Description: Inhibition of cathepsin L

[4] = test system: Liver microsomes; assay: Stability in rat liver microsomes; format: ADME, Microsome
[5] = target: Cathepsin S (Homo sapiens, UniProt P25774); assay: Inhibition of cathepsin S; format: single protein
Sequence of Cathepsin S (P25774 whole entry): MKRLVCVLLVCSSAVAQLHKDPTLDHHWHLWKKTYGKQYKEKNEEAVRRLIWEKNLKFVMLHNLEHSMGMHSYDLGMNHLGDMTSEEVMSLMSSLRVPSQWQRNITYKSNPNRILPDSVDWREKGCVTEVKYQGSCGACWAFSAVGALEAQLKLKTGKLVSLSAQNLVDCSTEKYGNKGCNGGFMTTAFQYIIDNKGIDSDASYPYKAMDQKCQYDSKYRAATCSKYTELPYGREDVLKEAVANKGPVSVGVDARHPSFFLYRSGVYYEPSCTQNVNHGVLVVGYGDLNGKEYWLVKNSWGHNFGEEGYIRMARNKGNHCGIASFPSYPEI

[6] = Cmax in Wistar rat at 10 mg/kg, po; format: ADME, organism-based; set-up: dose 10 mg/kg, route oral; details: in vivo
[7] = AUC in Wistar rat at 10 mg/kg, po; format: ADME, organism-based; set-up: dose 10 mg/kg, route oral; details: plasma
[8] = Half life in Wistar rat at 10 mg/kg, po; format: ADME, organism-based; set-up: dose 10 mg/kg, route oral; details: in vivo
[9] = Clearance in Wistar rat at 3 mg/kg, iv; format: ADME, organism-based; set-up: dose 3 mg/kg, route intravenous; details: in vivo
[10] = Half life in Wistar rat at 3 mg/kg, iv; format: ADME, organism-based; set-up: dose 3 mg/kg, route intravenous; details: in vivo
[11] = Bioavailability in Wistar rat at 10 mg/kg, po; format: ADME, organism-based; details: in vivo
[12] = Volume of distribution in Wistar rat at 3 mg/kg, iv; format: ADME, organism-based; set-up: dose 3 mg/kg, route intravenous; details: in vivo, read-out: Vdss
[13] = target: T2, Cathepsin L2 (Homo sapiens, UniProt O60911); assay: Inhibition of cathepsin V
T2 sequence (O60911 whole entry): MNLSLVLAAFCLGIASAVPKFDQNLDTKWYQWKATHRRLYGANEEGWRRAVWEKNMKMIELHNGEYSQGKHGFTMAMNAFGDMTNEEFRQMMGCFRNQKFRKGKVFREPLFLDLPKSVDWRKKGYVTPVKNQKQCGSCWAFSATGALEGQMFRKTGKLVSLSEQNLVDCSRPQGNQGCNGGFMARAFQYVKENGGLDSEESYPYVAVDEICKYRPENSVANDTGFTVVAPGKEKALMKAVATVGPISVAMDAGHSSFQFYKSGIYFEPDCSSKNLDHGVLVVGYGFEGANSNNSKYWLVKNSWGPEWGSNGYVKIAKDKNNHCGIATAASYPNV

[14] = target: T3, Pro-cathepsin H (Homo sapiens, UniProt P09668); assay: Inhibition of cathepsin H
T3 sequence (P09668 whole entry): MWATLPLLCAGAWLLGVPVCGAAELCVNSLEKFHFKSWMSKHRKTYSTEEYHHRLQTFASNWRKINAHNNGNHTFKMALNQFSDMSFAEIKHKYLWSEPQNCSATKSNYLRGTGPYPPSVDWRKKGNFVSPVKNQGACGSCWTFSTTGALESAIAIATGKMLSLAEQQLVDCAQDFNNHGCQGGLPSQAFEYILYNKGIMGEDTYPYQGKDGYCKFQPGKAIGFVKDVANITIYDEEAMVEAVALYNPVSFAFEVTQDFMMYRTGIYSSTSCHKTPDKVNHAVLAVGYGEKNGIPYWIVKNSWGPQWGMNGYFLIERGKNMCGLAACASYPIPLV

[15] = target: Cathepsin Z (Homo sapiens, UniProt Q9UBR2); assay: Inhibition of cathepsin X
Sequence of Cathepsin Z (Q9UBR2 whole entry): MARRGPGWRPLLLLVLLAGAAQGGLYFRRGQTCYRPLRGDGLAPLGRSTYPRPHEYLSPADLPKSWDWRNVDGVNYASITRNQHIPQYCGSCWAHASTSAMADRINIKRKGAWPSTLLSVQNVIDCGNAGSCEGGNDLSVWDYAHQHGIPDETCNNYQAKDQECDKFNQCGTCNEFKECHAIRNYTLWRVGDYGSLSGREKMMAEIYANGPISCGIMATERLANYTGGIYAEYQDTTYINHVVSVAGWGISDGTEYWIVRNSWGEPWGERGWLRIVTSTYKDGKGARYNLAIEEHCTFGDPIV

[16] = target: Cathepsin B (Homo sapiens, UniProt P07858); assay: Inhibition of cathepsin B
[17] = target: T4, Cathepsin F (Homo sapiens, UniProt Q9UBX1); assay: Inhibition of cathepsin F
T4 sequence (Q9UBX1 whole entry): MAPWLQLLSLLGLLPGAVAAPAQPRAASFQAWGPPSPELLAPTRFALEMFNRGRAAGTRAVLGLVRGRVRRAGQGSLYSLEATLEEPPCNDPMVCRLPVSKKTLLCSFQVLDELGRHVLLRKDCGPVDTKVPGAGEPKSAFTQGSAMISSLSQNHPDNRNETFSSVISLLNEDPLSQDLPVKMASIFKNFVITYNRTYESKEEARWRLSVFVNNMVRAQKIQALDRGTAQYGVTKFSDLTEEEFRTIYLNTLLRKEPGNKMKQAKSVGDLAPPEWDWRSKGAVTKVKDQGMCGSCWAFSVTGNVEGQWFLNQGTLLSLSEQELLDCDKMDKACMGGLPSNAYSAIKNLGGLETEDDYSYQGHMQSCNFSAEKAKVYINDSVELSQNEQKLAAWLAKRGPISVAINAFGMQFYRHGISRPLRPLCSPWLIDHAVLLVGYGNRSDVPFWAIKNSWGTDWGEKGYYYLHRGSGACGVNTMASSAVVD

C[C@@H](CN1CC(C)(C)c2cc(F)ccc21)NC(=O)[C@H](CC1CCCCC1)NC(=O)N1CCOCC1
Ki [1]: 16.9 µM | solubility [2]: 10 µg/mL (≈ 20.5 µM) | Ki [3]: 0.81 µM | Stability [4]: < 1% | Ki [5]: 0.011 µM

C[C@@H](CN1c2ccc(F)cc2CC1(C)C)NC(=O)[C@H](CC1CCCCC1)NC(=O)N1CCOCC1
Ki [1]: 13.1 µM | Ki [5]: 0.111 µM

C[C@@H](CNc1ccc(OC(F)(F)F)cc1)NC(=O)[C@H](CC1CCCCC1)NC(=O)OC1CCOCC1
Ki [1]: 13.3 µM | Ki [5]: 0.012 µM

O=C(N[C@@H](CC1CCCCC1)C(=O)NCCNc1ccc(OC(F)(F)F)cc1)c1cc2ccccc2o1
Ki [1]: 0.15 µM | Ki [5]: 0.017 µM

COc1ccc(NCCNC(=O)[C@H](CC2CCCCC2)NC(=O)c2ccc(-c3cccc(C(F)(F)F)c3)o2)cc1
Cmax [6]: 19 nM | solubility [2]: < 1 µg/mL | AUC [7]: 50 ng·h/mL | half-life [8]: 2.43 h | Stability [4]: 12%

CS(=O)(=O)CC[C@@H](CNc1ccc(OC(F)(F)F)cc1)NC(=O)[C@H](CC1CCCCC1)NC(=O)N1CCOCC1
Ki [1]: 0.139 µM | Ki [3]: 0.004 µM | Ki [5]: 0.005 µM

C[C@@H](CNc1ccc(OC(F)(F)F)cc1)NC(=O)[C@H](CSCc1ccccc1)NC(=O)N1CCOCC1
Ki [1]: 2.48 µM | Ki [5]: 0.012 µM

C[C@@H](CNc1ccc(OC(F)(F)F)cc1)NC(=O)[C@H](CC1CCCCC1)NC(=O)[C@H]1CCCO1
Cmax [6]: 1240 nM | clearance [9]: 35 mL/min/kg | half-life [10]: 1.1 h | Ki [1]: 4.61 µM | solubility [2]: 25 µg/mL (≈ 51.5 µM) | AUC [7]: 1750 ng·h/mL | bioavailability [11]: 36% | half-life [8]: 0.967 h | Stability [4]: 66% | Ki [5]: 0.018 µM | Vd [12]: 1.78 L/kg

C[C@@H](CNc1ccc(OC(F)(F)F)cc1)NC(=O)[C@H](CC1CCCCC1)NC(=O)O[C@@H]1CCOC1
Ki [1]: > 30 µM | Ki [3]: 2.57 µM | Ki [5]: 0.042 µM

COc1ccc(NCCNC(=O)[C@H](CC2CCCCC2)Nc2nc3ccccc3o2)cc1
solubility [2]: 10 µg/mL (≈ 22.9 µM) | bioavailability [11]: < 1% | Stability [4]: 4%

C[C@@H](CNc1ccc(OC(F)(F)F)cc1)NC(=O)[C@H](CC(C)(C)C)NC(=O)N1CCOCC1
Ki [1]: 0.461 µM | Ki [3]: 14.6 µM | Ki [5]: 0.093 µM

O=C(N[C@@H](CC1CCCCC1)C(=O)NCCNc1ccc(OC(F)(F)F)cc1)c1ccc(-c2cccc(F)c2)o1
Ki [1]: 11.7 µM | Ki [5]: 0.034 µM

CC(C)(C)C[C@H](NC(=O)N1CCOCC1)C(=O)NCCNc1ccc(OC(F)(F)F)cc1
Ki [1]: 1.33 µM | Ki [3]: > 30 µM | Ki [5]: 0.22 µM

C[C@@H](CNc1ccc(OC(F)(F)F)cc1)NC(=O)[C@H](CC1CCCC1)NC(=O)N1CCOCC1
Ki [1]: 1.54 µM | Ki [5]: 0.049 µM

O=C(N[C@@H](CC1CCCCC1)C(=O)NCCNc1ccc(OC(F)(F)F)cc1)C1CCOC1 (stereo partly drawn)
Ki [1]: > 30 µM | Ki [3]: 7.94 µM | Ki [5]: 0.213 µM

O=C(N[C@@H](CC1CCCCC1)C(=O)NCCNc1ccc(OC(F)(F)F)cc1)c1ccc(-c2cccc(C(F)(F)F)c2)o1
Ki [1]: 8.58 µM | Ki [5]: 0.011 µM

CC[C@@H](CNc1ccc(OC(F)(F)F)cc1)NC(=O)[C@H](CC1CCCCC1)NC(=O)N1CCOCC1
Ki [1]: 0.13 µM | Ki [3]: 0.006 µM | Ki [5]: 0.011 µM

C[C@@H](CNc1ccc(OC(F)(F)F)cc1)NC(=O)[C@H](CC1CCCCC1)NC(=O)C1CCOC1 (stereo partly drawn)
Cmax [6]: 491 nM | clearance [9]: 39 mL/min/kg | half-life [10]: 1.8 h | Ki [1]: > 30 µM | solubility [2]: 30 µg/mL (≈ 61.8 µM) | AUC [7]: 817 ng·h/mL | bioavailability [11]: 19% | half-life [8]: 1.5 h | Ki [3]: 4.79 µM | Stability [4]: 56% | Ki [5]: 0.021 µM | Vd [12]: 2.48 L/kg

O=C(NCCNc1ccc(OC(F)(F)F)cc1)[C@H](Cc1ccccc1)NC(=O)N1CCOCC1
Ki [1]: > 100 µM | Ki [3]: > 100 µM | Ki [5]: 11.4 µM

O=C(NCCNc1ccc(OC(F)(F)F)cc1)[C@H](CC1CCCCC1)NC(=O)N1CCOCC1
Ki [1]: 18.8 µM | Ki [5]: 0.099 µM

C[C@@H](CN1CCc2cc(F)ccc21)NC(=O)[C@H](CC1CCCCC1)NC(=O)N1CCOCC1
Ki [1]: 5.13 µM | Ki [5]: 0.087 µM

O=C(N[C@@H](CC1CCCCC1)C(=O)NCCNc1ccc(OC(F)(F)F)cc1)c1ccco1
Ki [1]: 8.81 µM | Ki [3]: 1.15 µM | Ki [5]: 0.047 µM

C[C@@H](CNc1ccc(OC(F)(F)F)cc1)NC(=O)[C@H](CC1CCCCC1)NC(=O)C1CCOCC1
Ki [1]: 14.3 µM | Ki [5]: 0.012 µM

C[C@@H](CNc1ccc(OC(F)(F)F)cc1)NC(=O)[C@H](CC1CCCCC1)NC(=O)O[C@H]1CCOC1
Ki [1]: > 30 µM | Ki [3]: 0.594 µM | Ki [5]: 0.049 µM

O=C(NCCNc1ccc(OC(F)(F)F)cc1)[C@H](CC1CCCCC1)NC(=O)[C@H]1CCCO1
Ki [1]: > 30 µM | Ki [3]: 3.12 µM | Ki [5]: 0.658 µM

C[C@@H](CNc1ccc(OC(F)(F)F)cc1)NC(=O)[C@H](CS(=O)(=O)Cc1ccccc1)NC(=O)N1CCOCC1
Cmax [6]: 639 nM | clearance [9]: 39 mL/min/kg | Ki [13]: > 30 µM | half-life [10]: 0.817 h | Ki [1]: > 100 µM | Ki [14]: > 30 µM | Ki [15]: > 30 µM | solubility [2]: 43 µg/mL (≈ 75.1 µM) | AUC [7]: 700 ng·h/mL | bioavailability [11]: 16% | half-life [8]: 1.1 h | Ki [3]: > 30 µM | Stability [4]: 100% | Ki [16]: > 30 µM | Ki [17]: > 30 µM | Vd [12]: 0.87 L/kg

C[C@@H](CNc1ccc(OC(F)(F)F)cc1)NC(=O)[C@H](CC1CCCCC1)NC(=O)N1CCOCC1
Ki [1]: 1.66 µM | Ki [5]: 0.011 µM

C[C@@H](CNc1ccc(OC(F)(F)F)cc1)NC(=O)[C@H](CC1CCCCC1)NC(=O)[C@@H]1CCCO1
Ki [1]: > 30 µM | Ki [5]: 0.053 µM

O=C(N[C@@H](CC1CCCCC1)C(=O)NCCNc1ccc(OC(F)(F)F)cc1)c1ccoc1
Ki [1]: 9.34 µM | Ki [5]: 0.006 µM
